Results taken from patent publication US20060083711A1, “Methods and products related to the intracellular delivery of polysaccharides” (Massachusetts Institute of Technology, priority 2004, published 2006).
“And” between values parts separate entries of the source, which are not always exact repeats. Equal values may be shown once. “Also recorded” adds a separate entry of the source. One block for each compound: values may come before it.

Assays:
PC-3 cells = assay: PC-3 proliferation assay (whole cell number); format: cell-based, human; settings: for effect of kinase inhibitor on heparin-mediated growth inhibition: 50 μM LY294002, 20 μM PD98059, 20 μM U0126, 1 μM SB203580, heparin 500 ng/ml
Procedure: PC-3 cells were grown until confluence in 75 cm^2 flasks. Each flask was washed with 20 ml PBS, and treated with 3 ml trypsin-EDTA at 37° C. for 3-5 minutes, until cells detached. Cells were centrifuged for 3 min at 195×g. The supernatant was aspirated, and the cells were resuspended in 10 ml media. The cell density was measured using an electronic cell counter, and the suspension was diluted to 50,000 cells/ml. The suspension was plated 1 ml/well into 24-well tissue culture plates. After a 24 hour incubation in a 5% CO2, 37° C. humidified incubator, the media was aspirated, the wells were washed with serum free media, and the cells were supplemented with media containing 0.1% FBS and incubated for 24 hours. Cells were sequentially treated with antibodies, kinase inhibitors, heparin, and FGF2. Antibodies to FGF2, FGFR1, or FGFR3 were added to yield a final dilution of 1:100. Kinase inhibitors were added sufficient to yield final concentrations of 50 μM LY294002, 20 μM PD98059, 1 μM SB203580, and 20 μM U0126. Heparin was added at 500 ng/ml unless otherwise noted. To produce heparin digests, heparin was treated with PBS, hepI, or hepIII for 30 minutes, and boiled for 30 minutes. prior to addition to cells. Digestion was verified by UV spectroscopy at 232 nm. FGF2 was added at 100 ng/ml unless otherwise specified. Cells were then incubated for 72 hours. Wells were then washed twice with PBS and treated with 0.5 ml trypsin-EDTA/well and incubated for 10 minutes at 37° C. Whole cell number was determined using an electronic cell counter. Data were averaged over three experiments, each consisting of four wells per condition.
PC-3 cells were grown until confluence in 75 cm^2 flasks. Each flask was washed with 20 ml PBS, and treated with 3 ml trypsin-EDTA at 37° C. for 3-5 minutes, until cells detached. Cells were centrifuged for 3 minutes at 195×g, the supernatant was aspirated, and the cells were resuspended in 10 ml media. The cell suspension was diluted to 50,000 cells/ml based on the readings of an electronic cell counter. The suspension was plated 1 ml/well into 24-well tissue culture plates. After a 24 hour incubation in a 5% CO2, 37° C. humidified incubator, the cells were washed with serum free media, supplemented with media containing 0.1% FBS, and incubated for 24 hours. Cells were treated with heparin, HS or FGF2 as appropriate. Heparin was added at 500 ng/ml unless otherwise noted. FGF2 was added at 100 ng/ml unless otherwise specified. Cells were then incubated for 72 hours. Wells were then washed twice with PBS and treated with 0.5 ml trypsin-EDTA/well and incubated for 10 minutes at 37° C. Whole cell number was determined using an electronic cell counter. Data were averaged over three experiments, each consisting of four wells per condition.
For antibody and kinase inhibitor experiments, antibodies and kinase inhibitors were added prior to HSGAGs or FGF2. […]
To produce heparin digests, heparin was treated with PBS, heparinase I (hepI), or hepIII for 30 minutes, and boiled for 30 prior to addition to cells. Digestion was verified and quantified by UV spectroscopy at 232 nm (27). […]
A preliminary screen was performed on PC-3 cells by proliferation assay using the nine polymers described at polymer:heparin (w/w) ratios of 10:1, 20:1, 30:1, 40:1, and 60:1. The three best formulations (polymer and ratio) were selected and analyzed further. […] In vitro assessment of polymer activity was measured by proliferation assay with a heparin concentration of 1 μg/ml. […]

Daudi cells = assay: Whole cell proliferation assay; format: cell-based, human; settings: for direct effect of kinase inhibitor on Daudi whole cell number: FBS-deficient media, 50 μM LY294002, 20 μM PD98059, or 1 μM SB203580
Procedure: For proliferation assays using Daudi cells, cells were collected from 75 cm^2 flasks, washed three times with FBS-deficient media or proliferation media, and resuspended into 10 ml of the same media. Cells were diluted to 1×10^5 cells/ml based on the reading of an electronic cell counter, and plated 1 ml/well in 24-well plates. Wells were treated with PBS, heparin, A5, or A5-heparin conjugate in 10 μl volumes, and incubated for 72 hours at 37° C., 5% CO2. A5-heparin conjugates were additionally supplemented with 50 μM LY294002, 20 μM PD98059, or 1 μM SB203580, 50 mM sodium chlorate, or 10 ng/ml FGF2, as appropriate. Whole cell number was converted to a percent growth relative to PBS treatment. Proliferation assays on NFS-1.0 C-1 and J.CaM1.6 cells were performed as described for Daudi cells.
To probe the role of sulfation patterns and fine structure in inducing the effects of A5-heparin conjugates, heparin was partially digested with heparinases prior to conjugation. Heparin was diluted to 20 μg/ml in PBS and incubated with 5 mU/ml hepI or hepIII or an equivalent volume of PBS for 30 minutes. Digestion was confirmed by UV spectroscopy at 232 nm. Digested heparin was subsequently conjugated with A5 as described. A5 binding to the heparin fragments was confirmed using an Azure A competition assay as previously described. Daudi cells, plated as described at 1×10^5 cells/ml in 24-well plates, 1 ml/well, were treated with conjugates at a heparin concentration of 1 μg/ml or an equivalent volume of PBS. After incubating for 72 hours at 37° C., 5% CO2, the resultant whole cell count was determined by electronic cell counter, and data were converted to a percent growth relative to Daudi treated with PBS alone.
To examine the effects of protamine sulfate and heparinases on Daudi growth, cells were collected from 75 cm^2 flasks, pelletted, and resuspended into 10 ml of propagation media. Cells were diluted to 1×10^5 cells/ml based on the reading of an electronic cell counter, and plated 1 ml/well in 24-well plates. Protamine sulfate was added between 1 and 100,000 ng/ml. HepI and hepIII were added between 0.5 and 500 μU/ml for 24, 48, or 72 hours. Whole cell counts from heparinase assays were converted to percent reduction in whole cell number relative to untreated.

[1] = system: phospho-Erk1/2 in PC-3 cells; assay: Whole cell ELISA; format: cell-based, human; settings: 10 ng/ml FGF2; 5, 15, or 60 minutes
Procedure: (§1) ELISA was performed on whole cells to determine a quantifiable relative level of kinase activity. PC-3 cells were grown until confluence in 75 cm^2 flasks. Each flask was washed with 20 ml PBS, and treated with 3 ml trypsin-EDTA at 37° C. for 3-5 minutes, until cells detached. Cells were centrifuged for 3 min at 195×g. The supernatant was aspirated, and the cells were resuspended in 10 ml media. The cell density was measured using an electronic cell counter, and the suspension was diluted to 50,000 cells/ml. 100 mm dishes were supplemented with 10 ml cell suspension per dish. After a 24 hour incubation the media was aspirated, the dishes washed with serum free media, and the cells supplemented with media containing 0.1% FBS and incubated for 24 hours. Dishes were treated with PBS, 10 ng/ml FGF2, or 500 ng/ml heparin for 5, 15, or 60 minutes. Media was then aspirated, the cells were washed with 10 ml PBS, and each dish was treated with 5 ml Trizol reagent. Cell extract was added to 96-well plates previously incubated for 1 hour with primary antibodies to Erk1, Erk2 or phospho-Erk1/2. […] The reaction was quenched with 1 M HCl, and the plates were analyzed using a UV plate reader at 450 nm. Data were quantified by comparing to a standardized curve with varying concentrations of untreated cells.

Erk1, Erk2 in PC-3 cells = assay: Whole cell ELISA; format: cell-based, human; settings: 10 ng/ml FGF2 or 500 ng/ml heparin; 5, 15, or 60 minutes
Procedure: as §1

B16-F10 cells = assay: Whole cell proliferation assay; format: cell-based, mouse; settings: 10 ng/ml FGF2
Procedure: Adhesion cells (B16-F10, B16-BL6, SMCs, BAECs, NIH 3T3, SK-ES-1, Panc-1, and SW-1088) were seeded in 24-well plates at 1 ml/well as well as in 6-well plates at 3 ml/well, both at a density of 5×10^4 cells/ml. The plates were incubated for 24 hours at 37° C., 5% CO2. The cells were then washed with PBS and supplemented with media as appropriate. Cells were treated with PBS, heparin, polymer, or polymer-heparin conjugate, in 10 μl quantities at appropriate concentrations. Cells were incubated at 37° C., 5% CO2 for 72 hours, after which, each well was treated with 500 μl (24 well plates) or 1 ml (6 well plates) trypsin-EDTA for 5-15 minutes at room temperature, after which 400 μl was used to count the cell number with an electronic cell counter. […] Panc-1 cells were only tested in 10% FBS. Effects of conjugate were normalized to co-treatment without conjugate.
B16-F10 cells were grown until confluent, washed with PBS, treated with 3 ml trypsin-EDTA per 75 cm^2 tissue culture flask at 37° C. for 3-5 min, pelleted, and resuspended in FBS-deficient media. Cell concentration was determined with an electronic cell counter. […] Cells were treated with PBS, heparin, A5, or A5-heparin conjugate, added in 10 μl quantities, to yield a polymer concentration of 20 μg/ml and a heparin concentration of 1 μg/ml. […]

[2] = target: FGFR1c on PC-3 cells (human) (UniProt P11362); assay: cell-based or functional assay
Sequence of UniProt P11362 (P11362 22-822): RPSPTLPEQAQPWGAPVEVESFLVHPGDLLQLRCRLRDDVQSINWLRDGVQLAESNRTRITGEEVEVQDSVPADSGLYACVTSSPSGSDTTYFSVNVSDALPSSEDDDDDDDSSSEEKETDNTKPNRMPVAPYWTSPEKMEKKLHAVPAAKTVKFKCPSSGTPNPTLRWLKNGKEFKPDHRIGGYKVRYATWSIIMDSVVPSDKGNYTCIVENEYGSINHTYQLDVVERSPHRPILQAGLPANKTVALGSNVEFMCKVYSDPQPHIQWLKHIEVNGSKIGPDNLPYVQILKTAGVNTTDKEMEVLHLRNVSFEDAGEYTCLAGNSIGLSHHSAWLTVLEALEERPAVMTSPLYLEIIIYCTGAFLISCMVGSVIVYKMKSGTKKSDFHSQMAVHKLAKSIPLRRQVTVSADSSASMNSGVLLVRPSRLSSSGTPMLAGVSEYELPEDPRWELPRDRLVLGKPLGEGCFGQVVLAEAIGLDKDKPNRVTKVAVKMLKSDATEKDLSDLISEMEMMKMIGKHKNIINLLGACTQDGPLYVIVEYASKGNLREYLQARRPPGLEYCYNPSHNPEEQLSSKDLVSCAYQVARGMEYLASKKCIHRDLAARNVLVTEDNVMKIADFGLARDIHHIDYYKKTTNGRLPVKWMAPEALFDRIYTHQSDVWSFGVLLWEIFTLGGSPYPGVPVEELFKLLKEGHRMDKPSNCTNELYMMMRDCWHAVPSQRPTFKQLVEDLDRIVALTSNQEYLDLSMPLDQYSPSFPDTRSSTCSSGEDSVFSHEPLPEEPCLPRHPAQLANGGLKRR

Compound: COc1cccc(-c2cc(=O)c3ccccc3o2)c1N [PD98059]
effect of kinase inhibitor on heparin-mediated growth inhibition (PC-3 cells): eliminate the ability of heparin to inhibit PC-3 growth; also recorded: prevented heparin-mediated growth inhibition | direct effect of kinase inhibitor on Daudi whole cell number (Daudi cells): neither inhibition of PI3K with LY294002 (p>0.39) nor inhibition of Erk and Mek with PD98059 (p>0.64) had a direct effect

Compound: FGF2: Recombinant human FGF2
increase in proliferation (whole cell number) (PC-3 cells; 100 ng/ml FGF2): ~15% and 15.6±3.1% | proliferation (PC-3 cells; FGF2 doses of 50 ng/ml and lower): did not promote significant proliferation | effect on Daudi proliferation (Daudi cells; 10 ng/ml FGF2): did not affect Daudi proliferation | upregulation of phospho-Erk1/2 [1]: 2-3 fold | Erk1 or Erk2 levels (Erk1, Erk2 in PC-3 cells): no significant effect | inhibition of cell number by FGF2 alone (B16-F10 cells): 26.28±7.23%

Compound: C[S+]([O-])c1ccc(-c2nc(-c3ccncc3)c(-c3ccc(F)cc3)[nH]2)cc1 (stereo not drawn) [SB203580]
effect of kinase inhibitor on heparin-mediated growth inhibition (PC-3 cells): did not eliminate the effect of heparin; also recorded: had no effect | direct effect of kinase inhibitor on Daudi whole cell number (Daudi cells): caused a significant reduction

Compound: protamine sulfate
reduction in whole cell number (Daudi cells; protamine sulfate 1×10^5 ng/ml, media with 10% FBS, three days): 12.9±2.8% | effect on whole cell number (Daudi cells; protamine sulfate concentrations less than 1×10^5 ng/ml, 10% FBS): no effect

Compound: N#CC(=C(/N)Sc1ccccc1N)/C(C#N)=C(/N)Sc1ccccc1N [U0126]
effect of kinase inhibitor on heparin-mediated growth inhibition (PC-3 cells): eliminate the ability of heparin to inhibit PC-3 growth; also recorded: prevented heparin-mediated growth inhibition

increase in proliferation of PC-3 cells at 100 ng/ml FGF2 [2]: 15% | upregulation of phospho-Erk1/2 in PC-3 cells (whole cell ELISA) [2]: 2 to 3 fold
Compound: Recombinant human FGF2 (from UniProt P09038 135-288) (ligand)
